Structures can show the parent of a compound that is named as a salt.
Legend:
Assay in all cases: Minimum inhibitory concentration by agar dilution, Mueller Hinton Agar (NCCLS M7-A)
Type in all cases: cell-based
Citrobacter freundii = conditions: Culture No. 3507, MHA, 35° C., 20 hours
Experimental: (§1) The compounds of this invention and their respective pharmaceutically acceptable salts have antibiotic activity against a variety of gram-negative bacteria including Escherichia coli, Klebsiella pneumoniae, and Pseudomonas aeruginosa. The compounds are useful for treating bacterial infections in animals, including and most preferably humans. Compounds of the invention are tested for in vitro antimicrobial activity using standard testing procedures such as the determination of minimum inhibitory concentration (MIC) by methods described in "Methods for Dilution Antimicrobial Susceptibility Tests for Bacteria That Grow Aerobically" (M7-A) Published December 1985 by the National Committee for Clinical Laboratory Standards, 771 East Lancaster Avenue, Villanova, PA 19084. Briefly, MIC values are determined in unsupplemented Mueller Hinton Agar (MHA). The compounds tested are diluted serially into molten MHA at 47° C. The agar is poured into petri dishes and allowed to harden. The various bacteria used for testing are grown overnight on MHA at 35° C. and transferred to Tryptiease Soy Broth (TSB) until a turbidity of 0.5 McFarland standard is obtained. The bacteria are diluted one to twenty in TSB and inoculated on the plates (1 μl using a Steers replicator).

Enterobacter cloacae = conditions: 20 h, 35° C.
Experimental: as §1

Escherichia coli = conditions: 20 h, 35° C.
Experimental: as §1

Klebsiella oxytoca = conditions: 20 h, 35° C.
Experimental: as §1

Klebsiella pneumoniae = conditions: Culture No. 58, MHA, 35° C., 20 hours
Experimental: as §1

Proteus vulgaris = conditions: Culture No. 9679, MHA, 35° C., 20 hours
Experimental: as §1

Pseudomonas aeruginosa = conditions: 20 h, 35° C.
Experimental: as §1

Serratia marcescens = conditions: Culture No. 6888, MHA, 35° C., 20 hours
Experimental: as §1

Staphylococcus aureus = conditions: MHA, 35° C., 20 hours; for MIC: Staphylococcus aureus, Culture No. 6675
Experimental: as §1

Streptococcus faecalis = conditions: Enterococcus faecalis; Culture No. 694; MHA, 35° C., 20 hours
Experimental: as §1

Streptococcus pneumoniae = conditions: Culture No. 41, MHA, 35° C., 20 hours
Experimental: as §1

Streptococcus pyogenes = conditions: Culture No. 152, MHA, 35° C., 20 hours
Experimental: as §1

Row | Compound | MIC (Citrobacter freundii) [µg/mL] | MIC (Enterobacter cloacae; Culture No. 9381, MHA) [µg/mL] | MIC (Enterobacter cloacae; Culture No. 9382, MHA) [µg/mL] | MIC (Escherichia coli; Culture No. 311, MHA) [µg/mL] | MIC (Escherichia coli; Culture No. 9379, MHA) [µg/mL] | MIC (Escherichia coli; Culture No. 9380, MHA) [µg/mL] | MIC (Klebsiella oxytoca; Culture No. 9383, MHA) [µg/mL] | MIC (Klebsiella oxytoca; Culture No. 9384, MHA) [µg/mL] | MIC (Klebsiella pneumoniae) [µg/mL] | MIC (Proteus vulgaris) [µg/mL] | MIC (Pseudomonas aeruginosa; Culture No. 6432, MHA) [µg/mL] | MIC (Pseudomonas aeruginosa; Culture No. 6676, MHA) [µg/mL] | MIC (Pseudomonas aeruginosa; Culture No. 9191, MHA) [µg/mL] | MIC (Pseudomonas aeruginosa; Culture No. 30133, MHA) [µg/mL] | MIC (Serratia marcescens) [µg/mL] | Minimum Inhibitory Concentration (Staphylococcus aureus; Culture No. 3665) [MCG per ML] | Minimum Inhibitory Concentration (Staphylococcus aureus; Culture No. 6685) [MCG per ML] | MIC (Staphylococcus aureus) [µg/mL] | MIC (Streptococcus faecalis) [µg/mL] | MIC (Streptococcus pneumoniae) [µg/mL] | further results
1 | NCC(=O)OCC1C(NC(=O)C(=NOCC(=O)O)c2csc(N)n2)C(=O)N1S(=O)(=O)O (mixture of isomers) [Compound 11, Cis-(±)-3-[[2'-(2"-amino-4"-thiazolyl)-(Z)-2'-(1'"-carboxymethoxy)imino]acetamido]-4-[N-glycinoyloxymethyl]-2-oxo-1-azetidinesulfonic acid] | 0.25 | 64 | 0.25 | 0.125 | 0.25 | 0.25 | 1 | 0.125 | 0.125 | 0.125 | 64 | 8 | 8 | 16 | 0.5 | > 128 | > 128 | > 128 | > 128 | 128 | MIC (Streptococcus pyogenes): 16 µg/mL
2 | Nc1nc(C(=NOCC(=O)O)C(=O)NC2C(=O)N(S(=O)(=O)O)C2COC(=O)CNC=O)cs1 (mixture of isomers) [Compound 7, Cis-(±)-[2'-(2"-amino-4"-thiazolyl)-(Z)-2'-(1"-carboxymethoxy)imino]acetamido-4-[N-formylglycinoyloxymethyl]-2-oxo-1-azetidinesulfonic acid monopotassium salt] | 0.125 | 64 | 0.125 | 0.06 | 0.125 | 0.25 | 0.5 | 0.06 | 0.06 | < 0.03 | 8 | 4 | 4 | 8 | 0.25 | > 128 | > 128 | > 128 | > 128 | 64 | MIC (Escherichia coli; Culture No. 9451, MHA): 0.125 µg/mL; MIC (Streptococcus pyogenes): 16 µg/mL
